Entries after “also recorded” stand apart in the source; their conditions may differ.
What was measured:
Format in all cases: cell-based
AR ΔH12 = biological target: T1, AR ΔH12 (Homo sapiens, UniProt P10275); assay: AR expression levels in transiently transfected COS7 cells, AR ΔH12; conditions: 24 hours
T1 construct: expressed in transfected cells; host or cells: COS7
T1 sequence (P10275 1-886 limits assumed): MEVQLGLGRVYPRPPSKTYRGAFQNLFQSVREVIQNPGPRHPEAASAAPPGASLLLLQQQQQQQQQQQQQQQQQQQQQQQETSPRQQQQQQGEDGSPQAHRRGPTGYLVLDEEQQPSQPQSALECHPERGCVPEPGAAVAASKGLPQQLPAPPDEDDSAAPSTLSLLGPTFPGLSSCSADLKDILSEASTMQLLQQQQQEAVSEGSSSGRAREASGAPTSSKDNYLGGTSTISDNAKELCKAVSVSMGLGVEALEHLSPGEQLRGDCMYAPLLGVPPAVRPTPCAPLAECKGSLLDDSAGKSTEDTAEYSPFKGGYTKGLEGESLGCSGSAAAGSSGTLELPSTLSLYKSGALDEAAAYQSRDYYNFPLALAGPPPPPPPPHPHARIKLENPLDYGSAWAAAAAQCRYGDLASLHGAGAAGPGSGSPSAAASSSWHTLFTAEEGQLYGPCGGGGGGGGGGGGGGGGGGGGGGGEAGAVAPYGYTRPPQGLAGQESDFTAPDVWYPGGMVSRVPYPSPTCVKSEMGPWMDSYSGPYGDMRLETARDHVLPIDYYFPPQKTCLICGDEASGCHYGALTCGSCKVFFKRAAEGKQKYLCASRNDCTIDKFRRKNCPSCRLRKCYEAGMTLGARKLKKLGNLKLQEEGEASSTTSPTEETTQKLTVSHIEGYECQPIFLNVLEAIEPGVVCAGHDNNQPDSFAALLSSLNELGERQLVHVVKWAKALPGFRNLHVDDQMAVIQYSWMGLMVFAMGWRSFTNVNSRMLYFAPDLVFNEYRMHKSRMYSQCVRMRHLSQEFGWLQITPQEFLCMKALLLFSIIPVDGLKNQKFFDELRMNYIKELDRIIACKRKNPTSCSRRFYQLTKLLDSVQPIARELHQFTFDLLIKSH

wildtype AR = biological target: T2, wildtype AR (Homo sapiens, UniProt P10275); assay: AR-responsive firefly luciferase reporter assay in COS7 cells transfected with AR (DHT-stimulated AR activity); conditions: relative to initial chemotype A compounds; data not shown
T2 construct: The AR WT construct expresses full-length human AR under cmv promoter control; expressed in transfected cells; host or cells: COS7
T2 sequence (P10275 1-920): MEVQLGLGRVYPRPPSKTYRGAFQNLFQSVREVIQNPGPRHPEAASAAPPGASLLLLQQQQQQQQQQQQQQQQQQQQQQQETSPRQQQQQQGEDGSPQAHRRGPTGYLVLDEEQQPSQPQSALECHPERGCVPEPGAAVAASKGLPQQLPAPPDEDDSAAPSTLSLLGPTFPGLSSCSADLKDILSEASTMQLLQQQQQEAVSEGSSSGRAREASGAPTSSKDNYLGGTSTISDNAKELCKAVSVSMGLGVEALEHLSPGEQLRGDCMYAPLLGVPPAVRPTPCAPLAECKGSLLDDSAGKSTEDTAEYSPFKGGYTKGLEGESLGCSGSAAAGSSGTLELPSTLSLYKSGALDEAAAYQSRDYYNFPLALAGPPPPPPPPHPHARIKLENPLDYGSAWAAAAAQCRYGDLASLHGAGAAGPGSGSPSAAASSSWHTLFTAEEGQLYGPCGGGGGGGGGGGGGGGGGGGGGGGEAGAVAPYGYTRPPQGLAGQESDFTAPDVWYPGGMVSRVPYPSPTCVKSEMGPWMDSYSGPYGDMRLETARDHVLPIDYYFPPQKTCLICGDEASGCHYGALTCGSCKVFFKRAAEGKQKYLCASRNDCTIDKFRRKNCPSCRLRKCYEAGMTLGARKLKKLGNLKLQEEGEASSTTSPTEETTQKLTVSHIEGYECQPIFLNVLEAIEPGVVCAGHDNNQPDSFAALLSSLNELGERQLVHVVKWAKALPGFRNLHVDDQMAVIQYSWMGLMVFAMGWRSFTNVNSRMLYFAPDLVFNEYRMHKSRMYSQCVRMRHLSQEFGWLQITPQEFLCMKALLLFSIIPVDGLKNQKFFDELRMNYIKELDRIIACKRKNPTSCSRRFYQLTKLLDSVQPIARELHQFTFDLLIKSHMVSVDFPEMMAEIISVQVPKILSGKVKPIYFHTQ
From the text: FIG. 13. Antagonist activity of generation 4 compounds at 25 micromolar. […] Reporter firefly luciferase is corrected for control Renilla activity.
FIG. 14. Antagonist activity of generation 4 compounds at 1-10 micromolar. […] Reporter firefly luciferase is corrected for control Renilla activity. […]
The AR-responsive firefly luciferase reporter consists of 4 tandem repeats of the consensus steroid response element cloned upstream of the pGL3-Basic Luciferase vector (Promega). The AR WT construct expresses full-length human AR under cmv promoter control.
Luciferase activity was determined using the Dual-Luciferase Reporter Assay System (Promega E1910).

[1] = biological target: T3, endogenous wildtype AR in VCaP cells (Homo sapiens, UniProt P10275); assay: AR protein degradation with CHX in VCaP cells; conditions: CHX 100 nM, A89 50 μM
T3 construct: endogenous in cells; host or cells: VCaP
T3 sequence (P10275 1-920): T2 sequence (P10275 1-920)
Experimental: (§1) As LNCaP and C4-2 cells express the T877A mutant AR, we next examined PC3-AR cells expressing wildtype AR. As observed in C4-2 cells, A89 caused a decrease in AR protein levels (FIG. 10d). To further validate that this was due to increased AR protein degradation, we pretreated these cells with A89 for 2 hours and then blocked new protein synthesis with cycloheximide (CHX). […] We finally examined VCaP cells.

[2] = biological target: T4, AR ΔH12 (M886X variant AR) (Homo sapiens, UniProt P10275); assay: Mifepristone-stimulated VP16-NCoRc recruitment reporter assay in COS7 cells, AR ΔH12
T4 construct: expressed in transfected cells; host or cells: COS7
T4 sequence (P10275 1-886 limits assumed): T1 sequence (P10275 1-886 limits assumed)
From the text: The ERα antagonist fulvestrant (Faslodex) represents a novel class of estrogen receptor downregulators that appear to mediate ERα degradation by specifically repositioning helix 12. To assess the role of helix 12 in chemotype A-mediated AR degradation, we first determined if helix 12 is required for A89 binding. As this helix is required for AR agonist activity, we could not directly measure competitive antagonist activity on a truncated AR lacking helix 12.

[3] = biological target: T5, wild-type AR in PC3-AR cells (Homo sapiens, UniProt P10275); assay: AR protein levels and degradation (cycloheximide) in PC3-AR cells
T5 construct: expressed in transfected cells
T5 sequence (P10275 1-920): T2 sequence (P10275 1-920)
Experimental: as §1

## CCOc1cc(F)c(S(=O)(=O)NCc2ccc3c(c2)OCO3)cc1F [Compound A89, N-(1,3-benzodioxol-5-ylmethyl)-4-ethoxy-2,5-difluorobenzenesulfonamide]
AR ΔH12
  AR ΔH12 protein levels: not clearly decreased
Wildtype AR
  potency in antagonizing AR activity in luciferase reporter assays: increased potency; also recorded: relatively higher potency
[1]
  degradation of endogenous wildtype AR: increased degradation
[2]; A89 50 μM with Mif 100 nM
  mifepristone-mediated VP16-NCoRc recruitment: suppressed
[2]; Mif 100 nM, A89 50 μM, 24 hours
  VP16-NCoRc recruitment (interaction with AR): did not stimulate
[3]; A89 10 μM, PC3-AR cells
  time within which AR protein decreased: ≤ 4 h
[3]; A89 treated PC3-AR cells plus CHX
  time within which total AR protein dramatically decreased after cycloheximide (CHX): ≤ 1 h
[3]; PC3-AR cells expressing wildtype AR
  AR protein levels: decrease
[3]; PC3-AR cells pretreated with A89 for 2 hours, then 1 hour CHX, versus CHX alone
  AR protein levels after cycloheximide: declined markedly

From patent publication US20140088187A1, “ANDROGEN RECEPTOR INHIBITORS AND METHODS OF USE THEREOF” (BETH ISRAEL DEACONESS MEDICAL CENTER, priority 2010, published 2014)
